Measured values published in patent US8062995B2, “Dioxazine-substituted arylamides” (Bayer CropScience AG, priority 2005, dated 2011).
Values belong to the compound of their own block, whether it stands above or below them.

How the values were obtained:
Heliothis virescens = Heliothis virescens test (eggs); type: in vivo
Method: (§1) Heliothis virescens Solvents: 1% of N-methylpyrrolidone (NMP) • 1% of diacetone alcohol Dye: brilliant sulphoflavin for staining the water To produce a suitable preparation of active compound, the active compound is mixed with the stated amounts of solvents and the concentrate is diluted with stained water to the desired concentration. The eggs (Heliothis virescens) are treated with an active compound preparation of the desired concentration. After the desired period of time, the activity in % is determined. 100% means that all animals have been killed; 0% means that none of the animals have been killed.

[1] = system: Spodoptera frugiperda larvae; test: Spodoptera frugiperda test (treatment by watering); type: in vivo; details: for Kill rate after 14d in %: 20 ppm, treatment by watering
Method: Spodoptera frugiperda Test Solvent: 7 parts by weight of dimethylformamide Emulsifier: 2 parts by weight of alkylaryl polyglycol ether To produce a suitable preparation of active compound, 1 part by weight of active compound is mixed with the stated amounts of solvent and emulsifier and the concentrate is diluted with water to the desired concentration. Maize plants (Zea mays) are watered with an active compound preparation of the desired concentration and infected with Spodoptera frugiperda larvae. After the desired period of time, the kill in % is determined. 100% means that all larvae have been killed; 0% means that none of the larvae have been killed.

Myzus persicae = Myzus persicae test (ingestion of active compound preparation); type: in vivo
Method: Myzus persicae Test Solvents: 1% of N-methylpyrrolidone (NMP) • 1% of diacetone alcohol Dye: brilliant sulphoflavin for staining the water To produce a suitable preparation of active compound, the active compound is mixed with the stated amounts of solvents and the concentrate is diluted with stained water to the desired concentration. The Myzus persicae are provided with an active compound preparation of the desired concentration for ingestion. After the desired period of time, the activity in % is determined. 100% means that all aphids have been killed; 0% means that none of the aphids have been killed.

[2] = system: caterpillars of the army worm (Spodoptera frugiperda); test: Spodoptera frugiperda test (SPODFR spray treatment); type: in vivo; details: for Kill rate after 7d in %: 100 g/ha, spray treatment
Summary of the method: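 Compound formulated in acetone/DMF with alkylaryl polyglycol ether emulsifier, diluted in emulsifier-containing water and sprayed on maize leaf discs; after drying, discs infested with Spodoptera frugiperda caterpillars. Mortality (%) scored after a set period, 100% meaning all caterpillars killed.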

[3] = system: larvae of the mustard beetle (Phaedon cochleariae); test: Phaedon test (sprayed Chinese cabbage discs); type: in vivo; details: for Kill rate after 7d in %: 100 g/ha
Summary of the method: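 Compound formulated in acetone/DMF with alkylaryl polyglycol ether emulsifier, diluted in emulsifier-containing water and sprayed onto Chinese cabbage (Brassica pekinensis) leaf discs. After drying, discs infested with Phaedon cochleariae larvae; % kill scored after set time (100% = all larvae dead, 0% = none).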

[4] = logP determination by HPLC (reversed-phase C18), EEC Directive 79/831 Annex V.A8; type: physicochemical; details: HPLC reversed-phase C18, 43° C., acidic range pH 2.7
Aedes aegypti = Aedes aegypti test (larvae); type: in vivo
Method: as §1, with “Aedes aegypti Test Solvents:” for “Heliothis virescens Solvents:”, “The larvae (Aedes aegypti)” for “The eggs (Heliothis virescens)”, “all of the larvae” for “all animals”, “the larvae” for “the animals”

[5] = system: Diabrotica undecimpunctata; test: Diabrotica undecimpunctata (DIABUN) test (eggs); type: in vivo
Method: as §1, with “Diabrotica undecimpunctata (DIABUN)” for “Heliothis virescens”, “(Diabrotica undecimpunctata)” for “(Heliothis virescens)”

[6] = system: caterpillars of the cotton bollworm (Heliothis armigera); test: Heliothis armigera test (leaf dip); type: in vivo
Method: (§2) Heliothis armigera Test Solvent: 7 parts by weight of dimethylformamide Emulsifier: 2 parts by weight of alkylaryl polyglycol ether To produce a suitable preparation of active compound, 1 part by weight of active compound is mixed with the stated amounts of solvent and emulsifier and the concentrate is diluted with emulsifier-containing water to the desired concentration. Soya bean leaves (Glycine max.) are treated by being dipped into the active compound preparation of the desired concentration and populated with caterpillars of the cotton bollworm (Heliothis armigera) while the leaves are still moist. After the desired period of time, the kill in % is determined. 100% means that all caterpillars have been killed; 0% means that none of the caterpillars have been killed.

[7] = system: green peach aphid (Myzus persicae); test: Myzus test; oral; type: in vivo
Method: Myzus Test; Oral Solvent: 80 parts by weight of acetone To produce a suitable preparation of active compound, 1 part by weight of active compound is mixed with the stated amounts of solvent and the concentrate is diluted with water to the desired concentration. Vessels are populated with all stages of the green peach aphid (Myzus persicae) which are treated by sucking the active compound preparation of the desired concentration. After the desired period of time, the activity in % is determined. 100% means that all aphids have been killed; 0% means that none of the aphids have been killed.

[8] = system: green peach aphid (Myzus persicae); test: Myzus persicae test; systemic treatment; type: in vivo; details: for Kill rate after 6d in %: 20 ppm, systemic treatment
Method: Myzus persicae Test; Systemic Treatment Solvent: 7 parts by weight of dimethylformamide Emulsifier: 2 parts by weight of alkylaryl polyglycol ether To produce a suitable preparation of active compound, 1 part by weight of active compound is mixed with the stated amounts of solvent and emulsifier and the concentrate is diluted with water to the desired concentration. The active compound preparation is mixed with water. The stated concentration refers to the amount of active compound per volume unit of water (mg/l=ppm). The treated water is filled into vessels with a pea plant (Pisum sativum) which is then infected with the green peach aphid (Myzus persicae). After the desired period of time, the kill in % is determined. 100% means that all aphids have been killed; 0% means that none of the aphids have been killed.

[9] = system: caterpillars of the army worm (Spodoptera exigua); test: Spodoptera exigua test (leaf dip); type: in vivo
Method: as §2, with “Spodoptera exigua” for “Heliothis armigera”, “Cabbage” for “Soya bean”, “(Brassica oleracea)” for “(Glycine max.)”, “army worm (Spodoptera exigua)” for “cotton bollworm (Heliothis armigera)”

[10] = system: caterpillars of the diamondback moth (Plutella xylostella); test: Plutella test (leaf dip); type: in vivo
Method: as §2, with “Plutella” for “Heliothis armigera”, “Cabbages” for “Soya bean”, “(Brassica oleracea)” for “(Glycine max.)”, “diamondback moth (Plutella xylostella)” for “cotton bollworm (Heliothis armigera)”

[11] = system: green peach aphid (Myzus persicae); test: Myzus test (MYZUPE spray treatment); type: in vivo; details: for Kill rate after 5d in %: 100 g/ha, spray treatment
Summary of the method: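 Chinese cabbage leaf discs infested with all aphid stages sprayed with compound in acetone/DMF with alkylaryl polyglycol ether emulsifier, diluted in emulsifier-containing water to the desired concentration. After the set period, percent activity scored as aphids killed (100% = all dead, 0% = none).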

[12] = system: cotton aphid (Aphis gossypii); test: Aphis gossypii test (leaf dip); type: in vivo; details: for Kill rate after 6d in %: 100 ppm
Method: as §2, with “Aphis gossypii” for “Heliothis armigera”, “Cotton” for “Soya bean”, “(Gossypium hirsutum) which are heavily infested by the cotton aphid (Aphis gossypii)” for “(Glycine max.)”, “concentration.” for “concentration and populated with caterpillars of the cotton bollworm (Heliothis armigera) while the leaves are still moist.”, “aphids” for “caterpillars”

[13] = system: Spodoptera exigua, resistant strain; test: Spodoptera exigua test; resistant strain; type: in vivo
Method: Spodoptera exigua Test; Resistant Strain
Solvent: 7 parts by weight of dimethylformamide
Emulsifier: 2 parts by weight of alkylaryl polyglycol ether
To produce a suitable preparation of active compound, 1 part by weight of active compound is mixed with the stated amounts of solvent and emulsifier and the concentrate is diluted with emulsifier-containing water to the desired concentration.
Cabbage leaves (Brassica oleracea) are treated by being dipped into the active compound preparation of the desired concentration and populated with caterpillars of the army worm (Spodoptera exigua, resistant strain) while the leaves are still moist.
After the desired period of time, the kill in % is determined. 100% means that all caterpillars have been killed; 0% means that none of the caterpillars have been killed.

- logP [4]: 3.09
Compound: O=C(Nc1c(Cl)cc(Cl)cc1C1=NOCCO1)c1cc(Br)nn1-c1ncccc1Cl [Example I-1-8]
- activity in the Heliothis virescens test (in words) (Heliothis virescens): good activity
- Kill rate after 6-7d in % (Heliothis virescens; 100 ppm, 6-7 d, eggs): 100%
- activity in the Spodoptera frugiperda test, watering (in words) [1]: good activity
- Kill rate after 14d in % [1]: 95%
- activity in the Myzus persicae test (in words) (Myzus persicae): good activity
- Kill rate after 6-7d in % (Myzus persicae; 30 ppm, 6-7 d, ingestion): 100%
- activity in the Spodoptera frugiperda test, spray treatment (in words) [2]: good activity
- Kill rate after 7d in % [2]: 100%
- activity in the Phaedon test (in words) [3]: good activity
- Kill rate after 7d in % [3]: 100%
- activity in the Aedes aegypti test (in words) (Aedes aegypti): good activity
- Kill rate after 2-4d in % (Aedes aegypti; 30 ppm, 2-4 d, larvae): 100%
- activity in the Diabrotica undecimpunctata test (in words) [5]: good activity
- Kill rate after 2-5d in % ([5]; 300 ppm, 2-5 d, eggs): 100%
- activity in the Heliothis armigera test (in words) [6]: good activity
- Kill rate after 7d in % ([6]; 20 ppm): 100%

- logP [4]: 1.98
Compound: Cc1cccc(C2=NOCCN2)c1NC(=O)c1cc(C(F)(F)F)nn1-c1ncccc1Cl [Example I-1-16]
- activity in the Myzus test, oral (in words) [7]: good activity
- Kill rate after 5d in % ([7]; 100 ppm, 5 d, oral): 100%
- activity in the Spodoptera frugiperda test, spray treatment (in words) [2]: good activity
- Kill rate after 7d in % [2]: 100%
- activity in the Phaedon test (in words) [3]: good activity
- Kill rate after 7d in % [3]: 100%
- activity in the Myzus persicae test, systemic treatment (in words) [8]: good activity
- Kill rate after 6d in % [8]: 100%
- activity in the Spodoptera exigua test (in words) [9]: good activity
- Kill rate after 7d in % ([9]; 20 ppm): 100%
- activity in the Plutella test (in words) [10]: good activity
- Kill rate after 7d in % ([10]; 100 ppm): 100%
- activity in the Myzus test, spray treatment (in words) [11]: good activity
- Kill rate after 5d in % [11]: 100%
- activity in the Heliothis armigera test (in words) [6]: good activity
- Kill rate after 7d in % ([6]; 20 ppm): 100%

- logP [4]: 2.25
Compound: Cc1cc(Cl)cc(C2=NOCCN2)c1NC(=O)c1cc(Br)nn1-c1ncccc1Cl [Example I-1-19]
- activity in the Aphis gossypii test (in words) [12]: good activity
- Kill rate after 6d in % [12]: 80%
- Kill rate after 14d in % [1]: 95%
- activity in the Spodoptera frugiperda test, spray treatment (in words) [2]: good activity
- Kill rate after 7d in % [2]: 100%
- activity in the Phaedon test (in words) [3]: good activity
- Kill rate after 7d in % [3]: 100%
- activity in the Myzus persicae test, systemic treatment (in words) [8]: good activity
- Kill rate after 6d in % [8]: 90%
- activity in the Spodoptera exigua test (in words) [9]: good activity
- Kill rate after 7d in % ([9]; 4 ppm): 80%
- activity in the Plutella test (in words) [10]: good activity
- Kill rate after 7d in % ([10]; 0.8 ppm): 100%
- activity in the Myzus test, spray treatment (in words) [11]: good activity
- Kill rate after 5d in % [11]: 90%
- activity in the Spodoptera exigua test, resistant strain (in words) [13]: good activity
- Kill rate after 7d in % ([13]; 20 ppm, 7 d, resistant strain): 100%
- activity in the Heliothis armigera test (in words) [6]: good activity
- Kill rate after 7d in % ([6]; 4 ppm): 100%

- logP [4]: 2.25
Compound: Cc1cc(Cl)cc(C2=NOCCN2)c1NC(=O)c1cc(Cl)nn1-c1ncccc1Cl [Example I-1-20]
- activity in the Aphis gossypii test (in words) [12]: good activity
- Kill rate after 6d in % [12]: 80%
- Kill rate after 14d in % [1]: 95%
- activity in the Spodoptera frugiperda test, spray treatment (in words) [2]: good activity
- Kill rate after 7d in % [2]: 100%
- activity in the Phaedon test (in words) [3]: good activity
- Kill rate after 7d in % [3]: 100%
- activity in the Spodoptera exigua test (in words) [9]: good activity
- Kill rate after 7d in % ([9]; 4 ppm): 100%
- activity in the Plutella test (in words) [10]: good activity
- Kill rate after 7d in % ([10]; 4 ppm): 100%
- activity in the Myzus test, spray treatment (in words) [11]: good activity
- Kill rate after 5d in % [11]: 100%
- activity in the Heliothis armigera test (in words) [6]: good activity
- Kill rate after 7d in % ([6]; 4 ppm): 100%
